Consider 32 compounds from patent US7745424B2, “Alkane diol derivatives as therapeutic agents for the treatment of bone conditions” (The Univeristy Court of the University of Aberdeen, priority 2001, dated 2010).

One assay concerns macrophage cell line J774. As to the kind of experiment: Alamar Blue macrophage J774 viability assay. To be noted: Mus musculus, J774, 72 h, read-out: IC50 (μM) Alamar Blue.
Turning to `O=C(OCCCCOC(=O)c1ccc(F)cc1F)c1ccc(F)cc1F` [ABD-0111, 1,4-Butanediol di(2,4-difluorobenzoic acid)Ester], the IC50 was more than 100 µM.

As for `O=C(OCCCCO)c1ccc(F)c(F)c1F` [ABD-0108, 1,4-Butanediol mono(2,3,4-trifluorobenzoic acid)Ester], the IC50 was more than 100 µM. Same read-out and setting: next, `O=C(OCCCCBr)c1ccc(-c2ccccc2)cc1` [ABD-0086, 4-Bromobutyl (biphenyl-4-carboxylic acid) ester]: more than 100 µM; `O=C(OCCCCOC(=O)c1c(F)c(F)c(F)c(F)c1F)c1c(F)c(F)c(F)c(F)c1F` [ABD-0085, 1,4-Butanediol di(pentafluorobenzoic acid)Ester]: 4 µM. On the same count and under the same terms, under `CCCCCOC(=O)c1ccc(-c2ccccc2)cc1` [ABD-0090, Pentyl (biphenyl-4-carboxylic acid) ester] stands 45 µM.

Regarding `O=C(OCCCCO)c1ccc(-c2ccccc2F)cc1` [ABD-0099, 1,4-Butanediol mono(2′-fluoro-biphenyl-4-carboxylic acid)Ester], the IC50 worked out at 14 µM.

Regarding `O=C(OCCCCO)c1ccc(-c2ccccc2[N+](=O)[O-])cc1` [ABD-0098, 1,4-Butanediol mono(2′-nitro-biphenyl-4-carboxylic acid)Ester], the IC50 is 17 µM. Regarding `O=C(OCCCCO)c1c(F)ccc(F)c1F` [ABD-0106, 1,4-Butanediol mono(2,3,6-trifluorobenzoic acid)Ester], the IC50 was more than 100 µM. On the same count and under the same terms, under `O=C(OCCCCO)C(c1ccccc1)(c1ccccc1)c1ccccc1` [ABD-0028, 1,4-Butandiol mono(triphenylacetic acid)Ester] stands 30 µM. On the same count and under the same terms, next, `O=C(OCCCCO)c1cc(F)c(F)cc1F` [ABD-0109, 1,4-Butanediol mono(2,4,5-trifluorobenzoic acid)Ester]: more than 100 µM; `COCCCCOC(=O)c1ccc(-c2ccccc2)cc1` [ABD-0050, 4-Methoxybutyl (biphenyl-4-carboxylic acid) ester]: more than 100 µM. The same measure, in the same setting: under `O=C(OCCCCO)c1ccc(-c2ccc(O)cc2)cc1` [ABD-0072, 1,4-Butanediol mono(4′-hydroxy-biphenyl-4-carboxylic acid)Ester] stands 45 µM; under `O=C(OCCCCO)c1ccc(-c2ccc(F)cc2)cc1` [ABD-0100, 1,4-Butandiol mono(4′-fluoro-biphenyl-4-carboxylic acid)Ester], 14 µM.

For the compound `O=C(OCCCCO[N+](=O)[O-])c1ccc(-c2ccccc2)cc1` [ABD-0087, 4-Nitrooxybutyl (biphenyl-4-carboxylic acid) ester], the IC50 was 30 µM. The same measure, in the same setting: next, `CC(=O)OCCCCOC(=O)c1ccc(-c2ccccc2)cc1` [ABD-0049, Biphenyl-4-carboxylic acid (4-acetoxy)butyl ester]: 50 µM.

As to `CCc1ccc(-c2ccc(C(=O)OCCCCO)cc2)cc1` [ABD-0094, 1,4-Butanediol mono(4′-ethyl-biphenyl-4-carboxylic acid)Ester], the IC50 is more than 100 µM. Still for that read-out and setting: under `O=C(OCCCCO)c1ccc(F)cc1F` [ABD-0110, 1,4-Butanediol mono(2,4-difluorobenzoic acid)Ester] stands more than 100 µM; under `Cc1ccc(-c2ccc(C(=O)OCCCCO)cc2)cc1` [ABD-0070, 1,4-Butanediol mono(4′-methyl-biphenyl-4-carboxylic acid)Ester], more than 100 µM.

With `O=C(Cc1ccc(-c2ccccc2)cc1)OCCCCO` [ABD-0042, 1,4-Butanediol mono(biphenyl-4-yl-acetic acid)Ester], the IC50 was 45 µM.

For the compound `O=C(OCCCCO)c1c(F)c(F)c(F)c(F)c1F` [ABD-0077, 1,4-Butanediol mono(pentafluorobenzoic acid)Ester], the IC50 is 25 µM. Still for that read-out and setting: under `O=C(OCCCCO)c1ccc(I)cc1` [ABD-0069, 1,4-Butanediol mono(4-iodobenzoic acid)Ester] stands 90 µM; under `Cc1ccc(-c2ccc(C(=O)OCCCCO)cc2)cc1C` [ABD-0089, 1,4-Butanediol mono(3′,4′-dimethyl-biphenyl-4-carboxylic acid)Ester], 9 µM; under `O=C(OCC(F)(F)C(F)(F)CO)c1ccc(-c2ccccc2)cc1` [ABD-0095, 2,2,3,3-Tetrafluoro-butane-1,4-diol mono(biphenyl-4-carboxylic acid)Ester], 40 µM. Same read-out and setting: under `O=C(OCCCCO)c1ccc(F)c(F)c1` [ABD-0107, 1,4-Butanediol mono(3,4-difluorobenzoic acid)Ester] stands more than 100 µM; under `O=C(OCCCCO)c1ccc(-c2ccc(Br)cc2)cc1` [ABD-0102, 1,4-Butanediol mono(4′-bromo-biphenyl-4-carboxylic acid)Ester], 14 µM; under `COc1ccc(-c2ccc(C(=O)OCCCCO)cc2)cc1` [ABD-0097, 1,4-Butanediol mono(4′-methoxy-biphenyl-4-carboxylic acid)Ester], more than 100 µM.

The next assay concerns macrophage cell line J774. As to the kind of experiment: MTT macrophage J774 viability assay. Type of assay: cell-based. The settings on record: MTT assay, range of concentrations (FIGS. 4-7). Here is the method:
MTT (3-(4,5-dimethylthiazol-2-yl)-2,5-diphenyl tetrazolium bromide) has an […] colour and is soluble in the medium used for cell culture. The mitochondrial enzyme succinate dehydrogenase acts upon MTT in living cells to produce the insoluble purple coloured formazan. The amount of formazan produced, as measured by UV/visible spectroscopy, is proportional to the number of viable cells.
The medium was carefully removed using a needle without dislodging the crystal layer. 100 μL acidified isopropanol (4 M HCl 1:100 v/v in isopropanol) was added to each well and the purple crystals allowed to dissolve. The absorbance was measured in a plate reader at 540 nm, with 690 nm as reference. The controls were a deep purple colour, indicating a high number of live cells.
Addition of Compounds. […] These stock solutions were then diluted 100× in culture medium.
Consider `O=C(OCCCCO)C(c1ccccc1)(c1ccccc1)c1ccccc1` [ABD-0028, 1,4-Butandiol mono(triphenylacetic acid)Ester], for which the “macrophage J774 viability, activity in words” value is “more potent”. The same measure, in the same setting: under `O=C(Cc1ccc(-c2ccccc2)cc1)OCCCCO` [ABD-0042, 1,4-Butanediol mono(biphenyl-4-yl-acetic acid)Ester] stands “very active”; under `O=C(O)c1ccc(-c2ccccc2)cc1` [biphenylcarboxylic acid, reference compound], “not active”.

Still in this assay, the particulars now being: Mus musculus; macrophage J774 viability, MTT assay.
Regarding `O=C(OCCCCO)C(c1ccccc1)(c1ccccc1)c1ccccc1` [ABD-0028, 1,4-Butandiol mono(triphenylacetic acid)Ester], the 50% inhibitory concentration (IC50) is 20 µM. On the same count and under the same terms, under `O=C(Cc1ccc(-c2ccccc2)cc1)OCCCCO` [ABD-0042, 1,4-Butanediol mono(biphenyl-4-yl-acetic acid)Ester] stands 45 µM; under `O=C(OCCCCOC(=O)c1ccccc1)c1ccccc1` [ABD-0009, 1,4-Butanediol di(benzoic acid)Ester], more than 100 µM; under `CCCCOC(=O)Cc1ccc(-c2ccccc2)cc1` [ABD-0040, Butyl (biphenyl-4-yl-acetic acid) ester], more than 100 µM. On the same count and under the same terms, next, `O=C(OCCCCCO)c1ccc(-c2ccccc2)cc1` [ABD-0055, 1,5-Pentanediol mono(biphenyl-4-carboxylic acid)Ester]: 65 µM; `CC(C)Cc1ccc(C(C)C(=O)OCCCCCO)cc1` (stereo not drawn) [ABD-0038, 1,5-Pentanediol mono[2-(4-isobutylphenyl)Propionic acid]ester]: 68 µM.

In another assay the test system is osteoclasts. As to the kind of experiment: Murine co-culture system (osteoblast-bone marrow co-culture on dentine). To be noted: murine co-culture system. Format: cell-based, mice. Here is the method: The first model system, the murine co-culture system, studies the formation of osteoclasts_from precursors present in the bone marrow. The number of osteoclasts and the amount of dentine resorption was measured.
Osteoclast formation and activity was studied using an adaptation (see, e.g., van't Hof & Ralston, 1997) of the osteoblast-bone marrow co-culture assay originally described by Takahashi et al., 1988.
Co-Culture Methods. Co-culture (see, e.g., Van't Hof et al., 1997) is a method to study the formation of osteoclasts from their precursors. In this assay, osteoblasts were obtained from the calvaria of 2-3 day old neonatal mice. These were plated on dentine, stimulated with 1,25-dihydroxy vitamin D3 to stimulate RANKL and M-CSF expression. Early osteoclast precursors were present in the bone marrow of adult mice. The bone marrow suspension was purified to remove the red blood cells and the remainder cultured on top of the osteoblast layer. The stimulatory factors then allowed the osteoclast precursors to differentiate into mature osteoclasts. At the end of the culture osteoclasts were identified by TRAcP staining and the resorption activity was measured in the same manner as for rabbit osteoclasts.
Preparation of Dentine. The dentine was elephant ivory, preferred to bone because of its uniform surface, which facilitates easy visualisation of resorption pits. It was cut into slices of approximately 200 μm thickness using a Buehler Isomet low speed saw with a diamond wafering blade (series 15 HC). These slices were polished by hand, to a high degree, until one side was shiny. Out of these slices, discs were punched that fit the wells of a 96 well plate, using a paper puncher. Excess residues from the polish were removed by sonication. The discs were then stored in 70% ethanol until required. These discs were then dried and placed shiny side up in the wells of a 96 well plate. Cells were seeded onto the dentine. Following completion of the culture, these dentine slices were carefully removed from the plate and studied under the microscope.
Osteoblast Isolation. Briefly, osteoblasts were isolated from the calvarial bones of 2-day-old mice by sequential collagenase digestion (type I collagenase, Sigma) and cultured in αMEM supplemented with 10% FCS (foetal calf serum) and penicillin and streptomycin at 37° C. in 5% CO2.
More specifically, osteoblasts were obtained from a collagenase digestion of the calvaria (skull bones) of 2-3 day old neo-natal MF1 mice. At this stage in their development these are soft and easily removed. The calvaria from 5-6 mice were carefully dissected and washed in HBSS (Hank's balanced saline solution). The calvaria were placed in a 15 ml tube and shaken at 37° C. in 4 ml collagenase (10 mg/ml) for 10 minutes. This removes the excess unwanted tissue. The liquid was disposed of and a further 4 ml collagenase (10 mg/ml) added to the tube. The calvaria were then digested for a further 30 minutes. After this the supernatant (F1) was removed and retained. The calvaria were washed with a 2×4 ml PBS and this was added to F1. 4 ml EDTA (ethylene diamine tetraacetic acid) (4 mM in PBS) was then added to complex the calcium and allow further extraction of osteoblasts. This was shaken for 10 minutes at 37° C. The supernatant was removed and retained (F2). The calvaria were again washed with 2×4 ml HBSS and this was added to F2. The final 4 ml of collagenase (10 mg/ml) was added to the tube and this was again shaken at 37° C. for 30 minutes. […]
Regarding `OCCCCO` [1,4-butanediol, reference compound], the “inhibition of osteoclast formation and activity” value is reported as “no detected effect”.
